Source: patent publication US4695545A, “Culture and process for producing A41030 antibiotics” (Eli Lilly and Company, priority 1984, dated 1987)

Key:
[1] = Electrometric titration (pKa); assay type: physicochemical; settings: electrometric titration in 66% dimethylformamide in water; for possibly additional pKa's: stated as possible
Text: Antibiotic A41030 factor A is a white, crystalline solid.

Solubility in solvents = assay type: physicochemical; settings: qualitative
Text: As many as seven antibiotic factors are recovered from the fermentation and are obtained as a mixture, the A41030 complex. It will be recognized that the ratio of the factors in the A41030 complex will vary, depending upon the fermentation conditions used. The individual factors A, B, C, D, E, F, and G are separated and isolated as individual compounds, as hereinafter described.

Clostridium difficile [2] = assay: MIC anaerobic bacteria, agar-dilution; assay type: cell-based; settings: Clostridium difficile 2994; agar-dilution (Table 9)
Clostridium perfringens = assay type: cell-based; settings: Clostridium perfringens 81; agar-dilution
Clostridium septicum = assay: MIC anaerobic bacteria, agar-dilution; assay type: cell-based; settings: Clostridium septicum 1128
Eubacterium aerofaciens = assay: MIC anaerobic bacteria, agar-dilution; assay type: cell-based; settings: Eubacterium aerofaciens 1235
[3] = system: Peptococcus asaccharolyticus; assay: MIC anaerobic bacteria, agar-dilution; assay type: cell-based; settings: Peptococcus asaccharolyticus 1302
Peptococcus prevoti = assay: MIC anaerobic bacteria, agar-dilution; assay type: cell-based; settings: Peptococcus prevoti 1281
[4] = system: Peptostreptococcus anaerobius; assay: MIC anaerobic bacteria, agar-dilution; assay type: cell-based; settings: Peptostreptococcus anaerobius 1428
[5] = system: Peptostreptococcus intermedius; assay: MIC anaerobic bacteria, agar-dilution; assay type: cell-based; settings: Peptostreptococcus intermedius 1264
Propionibacterium acnes [6] = assay: MIC anaerobic bacteria, agar-dilution; assay type: cell-based; settings: Propionibacterium acnes 79; agar-dilution (Table 9)
Bacteroides fragilis = assay: MIC anaerobic bacteria, agar-dilution; assay type: cell-based
[7] = system: Bacteroides thetaiotaomicron; assay: MIC anaerobic bacteria, agar-dilution; assay type: cell-based; settings: Bacteroides thetaiotaomicron 1438
[8] = system: Bacteroides melaninogenicus; assay: MIC anaerobic bacteria, agar-dilution; assay type: cell-based; settings: Bacteroides melaninogenicus 2736
Bacteroides vulgatis = assay: MIC anaerobic bacteria, agar-dilution; assay type: cell-based; settings: Bacteroides vulgatis 1211
Bacteroides corrodens = assay: MIC anaerobic bacteria, agar-dilution; assay type: cell-based; settings: Bacteroides corrodens 1874
Fusobacterium symbiosum = assay: MIC anaerobic bacteria, agar-dilution; assay type: cell-based; settings: Fusobacterium symbiosum 1470
[9] = system: Fusobacterium necrophorum; assay: MIC anaerobic bacteria, agar-dilution; assay type: cell-based; settings: Fusobacterium necrophorum 6054A
Clostridium difficile [10] = assay: MIC against Clostridium difficile strains, agar-dilution; assay type: cell-based
Text: The A41030 antibiotic factors A, B, C, D, E, F, and G, are also active against a number of strains of Clostridium difficile, as determined by the agardilution method.

Staphylococcus aureus = assay: MIC aerobic bacteria, standard agar-dilution assay; assay type: cell-based; settings: Staphylococcus aureus S13E; agar-dilution, 24 hours
[11] = system: Staphylococcus epidermidis; assay: MIC aerobic bacteria, standard agar-dilution assay; assay type: cell-based; settings: Staphylococcus epidermidis EPI1, 24 hours
Streptococcus pyogenes = assay: MIC aerobic bacteria, standard agar-dilution assay; assay type: cell-based; settings: Streptococcus pyogenes C203, 24 hours
Streptococcus pneumoniae = assay: MIC aerobic bacteria, standard agar-dilution assay; assay type: cell-based; settings: Streptococcus pneumoniae Park I, 24 hours
[12] = system: Streptococcus sp. Group D; assay: MIC aerobic bacteria, standard agar-dilution assay; assay type: cell-based
Haemophilus influenzae = assay: MIC aerobic bacteria, standard agar-dilution assay; assay type: cell-based
Propionibacterium acnes [13] = assay: MIC against Propionibacterium acnes strains, 24-hour agar-dilution; assay type: cell-based
Text: Antibiotic A41030 factors A, B and C have been tested and found to be active against a genus of anaerobic bacteria identified as Propionibacterium acnes.

S. pyogenes = assay: In vivo oral activity against S. pyogenes in mice
[14] = Streptococcus sp. Group D 9960, 24 hours
[15] = Streptococcus sp. Group D X66, 24 hours

## A41030 factor E
[1]
  possibly additional pKa's: > 10
Solubility in solvents
  solubility (solvents): soluble in the same solvents as factor A
Clostridium difficile [2]
  MIC: 0.5 µg/mL
Clostridium perfringens
  MIC: 1.0 µg/mL
Clostridium septicum
  MIC: 0.5 µg/mL
Eubacterium aerofaciens
  MIC: 0.5 µg/mL
[3]
  MIC: ≤ 0.25 µg/mL
Peptococcus prevoti
  MIC: 32 µg/mL
[4]
  MIC: 32 µg/mL
[5]
  MIC: 32 µg/mL
Propionibacterium acnes [6]
  MIC: 0.5 µg/mL
Bacteroides fragilis; Bacteroides fragilis 111
  MIC: 64 µg/mL
Bacteroides fragilis; Bacteroides fragilis 1877
  MIC: 32 µg/mL
Bacteroides fragilis; Bacteroides fragilis 1936B
  MIC: 64 µg/mL
[7]
  MIC: 64 µg/mL
[8]
  MIC: 32 µg/mL
Bacteroides vulgatis
  MIC: 32 µg/mL
Bacteroides corrodens
  MIC: 64 µg/mL
Fusobacterium symbiosum
  MIC: 1.0 µg/mL
[9]
  MIC: 0.5 µg/mL
Clostridium difficile [10]; Clostridium difficile 78
  MIC: 0.5 µg/mL
Clostridium difficile [10]; Clostridium difficile 107B
  MIC: 0.5 µg/mL
Clostridium difficile [10]; Clostridium difficile 111F
  MIC: 0.5 µg/mL
Clostridium difficile [10]; Clostridium difficile 1153
  MIC: 1.0 µg/mL
Clostridium difficile [10]; Clostridium difficile 2634
  MIC: 1.0 µg/mL
Clostridium difficile [10]; Clostridium difficile 3424-5B
  MIC: 0.5 µg/mL
Clostridium difficile [10]; Clostridium difficile 3816
  MIC: 0.5 µg/mL
Clostridium difficile [10]; Clostridium difficile 3950D
  MIC: 0.5 µg/mL
Clostridium difficile [10]; Clostridium difficile 6890
  MIC: 0.5 µg/mL
Clostridium difficile [10]; Clostridium difficile 8484
  MIC: 0.5 µg/mL
Clostridium difficile [10]; Clostridium difficile A-194
  MIC: 0.5 µg/mL
Clostridium difficile [10]; Clostridium difficile A-195
  MIC: 0.5 µg/mL
Clostridium difficile [10]; Clostridium difficile A-196
  MIC: 1.0 µg/mL
Clostridium difficile [10]; Clostridium difficile A-279
  MIC: 0.5 µg/mL
Clostridium difficile [10]; Clostridium difficile A-280
  MIC: 0.5 µg/mL
Clostridium difficile [10]; Clostridium difficile A-281
  MIC: 1.0 µg/mL
Clostridium difficile [10]; Clostridium difficile WAL-2112
  MIC: 0.5 µg/mL
Clostridium difficile [10]; Clostridium difficile WAL-3657
  MIC: 0.5 µg/mL
Clostridium difficile [10]; Clostridium difficile WAL-4268
  MIC: 0.5 µg/mL
Staphylococcus aureus
  MIC: 0.25 µg/mL
[11]
  MIC: 0.25 µg/mL
Streptococcus pyogenes
  MIC: 0.25 µg/mL
Streptococcus pneumoniae
  MIC: 0.25 µg/mL
[12]; [14]
  MIC: 1 µg/mL
[12]; [15]
  MIC: 1 µg/mL
Haemophilus influenzae; Haemophilus influenzae 76, 24 hours
  MIC: 8 µg/mL
Haemophilus influenzae; Haemophilus influenzae C.L., 24 hours
  MIC: 8 µg/mL

## A41030 factor C
[1]
  pKa, second titratable group: ~7.1
  possibly additional pKa's: > 10
Solubility in solvents
  solubility (solvents): soluble in the same solvents as factor A
Propionibacterium acnes [13]; P. acnes strain 104
  MIC: 0.25 µg/mL
Propionibacterium acnes [13]; P. acnes strain 5170
  MIC: ≤ 0.03 µg/mL
Propionibacterium acnes [13]; P. acnes strain 5176
  MIC: ≤ 0.03 µg/mL
Propionibacterium acnes [13]; P. acnes strain 5187
  MIC: 0.06 µg/mL
Propionibacterium acnes [13]; P. acnes strain 5197
  MIC: ≤ 0.03 µg/mL
Propionibacterium acnes [13]; P. acnes strain 5227
  MIC: 0.06 µg/mL
Propionibacterium acnes [13]; P. acnes strain 5228
  MIC: 1.0 µg/mL
Propionibacterium acnes [13]; P. acnes strain 5229
  MIC: 0.5 µg/mL
Propionibacterium acnes [13]; P. acnes strain 5246
  MIC: 0.06 µg/mL
Propionibacterium acnes [13]; P. acnes strain 5292
  MIC: 0.06 µg/mL
Clostridium difficile [2]
  MIC: 16 µg/mL
Clostridium perfringens
  MIC: 1.0 µg/mL
Clostridium septicum
  MIC: 8 µg/mL
[3]
  MIC: ≤ 0.25 µg/mL
Peptococcus prevoti
  MIC: ≤ 0.25 µg/mL
[4]
  MIC: ≤ 0.25 µg/mL
Propionibacterium acnes [6]
  MIC: ≤ 0.25 µg/mL
Bacteroides fragilis; Bacteroides fragilis 1877
  MIC: 16 µg/mL
Bacteroides fragilis; Bacteroides fragilis 1936B
  MIC: 32 µg/mL
[7]
  MIC: 64 µg/mL
[8]
  MIC: 4 µg/mL
Bacteroides vulgatis
  MIC: 32 µg/mL
Bacteroides corrodens
  MIC: 32 µg/mL
Fusobacterium symbiosum
  MIC: 1.0 µg/mL
[9]
  MIC: 16 µg/mL
Clostridium difficile [10]; Clostridium difficile 78
  MIC: 1.0 µg/mL
Clostridium difficile [10]; Clostridium difficile 107B
  MIC: 1.0 µg/mL
Clostridium difficile [10]; Clostridium difficile 111F
  MIC: 2 µg/mL
Clostridium difficile [10]; Clostridium difficile 1153
  MIC: 2 µg/mL
Clostridium difficile [10]; Clostridium difficile 2634
  MIC: 2 µg/mL
Clostridium difficile [10]; Clostridium difficile 3424-5B
  MIC: 1.0 µg/mL
Clostridium difficile [10]; Clostridium difficile 3816
  MIC: 2 µg/mL
Clostridium difficile [10]; Clostridium difficile 3950D
  MIC: 2 µg/mL
Clostridium difficile [10]; Clostridium difficile 6890
  MIC: 2 µg/mL
Clostridium difficile [10]; Clostridium difficile 8484
  MIC: 1.0 µg/mL
Clostridium difficile [10]; Clostridium difficile A-194
  MIC: 2 µg/mL
Clostridium difficile [10]; Clostridium difficile A-195
  MIC: 1.0 µg/mL
Clostridium difficile [10]; Clostridium difficile A-196
  MIC: 2 µg/mL
Clostridium difficile [10]; Clostridium difficile A-279
  MIC: 2 µg/mL
Clostridium difficile [10]; Clostridium difficile A-280
  MIC: 1.0 µg/mL
Clostridium difficile [10]; Clostridium difficile A-281
  MIC: 2 µg/mL
Clostridium difficile [10]; Clostridium difficile WAL-2112
  MIC: 2 µg/mL
Clostridium difficile [10]; Clostridium difficile WAL-3657
  MIC: 2 µg/mL
Clostridium difficile [10]; Clostridium difficile WAL-4268
  MIC: 1.0 µg/mL
[11]
  MIC: 0.5 µg/mL
Streptococcus pyogenes
  MIC: 1 µg/mL
Streptococcus pneumoniae
  MIC: 1 µg/mL
[12]; [14]
  MIC: 4 µg/mL
[12]; [15]
  MIC: 2 µg/mL
Haemophilus influenzae; Haemophilus influenzae 251, 24 hours
  MIC: 4 µg/mL
Haemophilus influenzae; Haemophilus influenzae Brun, 24 hours
  MIC: 16 µg/mL
S. pyogenes
  in vivo oral activity: > 300 mg./kg.×2
